Results taken from US11666056B2, “Methods and compositions for control of arthropod pests” (GREENLIGHT BIOSCIENCES, INC., priority 2019, dated 2023).

Legend:
[1] = Measured pH of preservative working solutions and of tested formulations; type: physicochemical
Procedure: Separate working solutions of sodium benzoate and potassium sorbate are prepared in citric buffer (pH 5.3) and pH is measured as shown in Table 3.
Five formulations (Table 7) using the citric buffer of Example 1A and the preservatives of Example 1B were tested to determine the stability of the trigger nucleic acid molecule (SEQ ID NO: 1) in a) only sucrose (control); b) sucrose with preservatives; c) sucrose and citric buffer; d) sucrose with equal amounts of each preservative in citric buffer; and e) sucrose with sodium benzoate to potassium sorbate in a 1:0.5 ratio in citric buffer.
Four additional formulations were created to test the ability of sodium benzoate alone to protect a dsRNA from degradation. Sodium benzoate was prepared in a solution with a pH of 4.5.

[2] = citric buffer (pH 5.3)
[3] = preservative 50 mg/mL in citric buffer (pH 5.3)

Row | Compound | pH [1, 3] | pH ([1]; preservative 100 mg/mL in citric buffer) | solubility in citric buffer [2] | pH ([1]; preservative 100 mg/mL in ddH2O)
1 | O=C([O-])c1ccccc1.[Na+] [Sodium Benzoate] | 5.47 | 5.7 | – | –
2 | C/C=C/C=C/C(=O)[O-].[K+] [Potassium Sorbate] | 6.13 | – | low solubility | 8.8
